According to paper PMC8322648, “Brevibacillin 2V Exerts Its Bactericidal Activity via Binding to Lipid II and Permeabilizing Cellular Membranes” (Frontiers in Microbiology, 2021):

Assays:
[1] = system: S. aureus ATCC15975 (MRSA) membrane; assay: DiSC3(5) membrane potential assay; type: cell-based, Staphylococcus aureus; details: 2 × MIC; for rank order of membrane disruption capacity: correlates with calculated hydrophobicity
Protocol: Staphylococcus aureus ATCC15975 (MRSA) was grown to an OD600 of 0.8. The culture was pelleted at 5,000 × g for 5 min and washed three times in 10 mm HEPES with 10 mm glucose (pH 7.2). The cell density was normalized to an OD600 of 0.2, loaded with 2 μm DiSC3(5) dye, and incubated for 20 min in the dark for probe fluorescence to stabilize. After incubation, KCl was added to the cell suspension at a final concentration of 100 mm. Subsequently, the cell suspension was added to a 96-well microplate and incubation for 5 min; after that, antibiotics were added at a final concentration of 2 × MIC. Fluorescence was monitored for 25 min, with the antibiotics added after ~20 s. The excitation and emission wavelengths on the fluorescence spectrometer were adjusted to 622 nm and 670 nm, respectively. Representative examples from three technical replicates are shown.

[2] = ref Zhao et al., 2021; cited from earlier work
[3] = system: Staphylococcus aureus (MRSA); details: ref Zhao et al., cited from earlier work; for MIC: Staphylococcus aureus (MRSA), Figure 1, 2021; for MIC (molar): strain not given, compared with CF leakage concentration, 2021 (MIC source, b3)
Text: Figure 1 Structures of brevibacillins. The red color indicates the more hydrophobic amino acid residues of brevibacillin V, brevibacillin and brevibacillin I relative to brevibacillin 2V. MIC, the minimum inhibitory concentration against Staphylococcus aureus (MRSA). HC50, the 50% human blood cell hemolysis concentration. CC50, the 50% cell (HepG2) toxicity concentration. […] LUVs-based CF leakage assay is widely used in the studies of the antibiotic mode of action ([Hasper et al., 2004]; [Smith et al., 2008]; [Slootweg et al., 2015]; [Bakhtiary et al., 2017]). Disruption of the vesicle membrane by certain compounds releases CF from the LUVs into the extra-vesicular milieu resulting in increased fluorescence signal (Figure ...

[4] = Carboxyfluorescein leakage assay, LUVs of pure DOPC; details: peptide 100 nM; pure DOPC LUVs 5 μM; 25 mM Tris-HCl, 150 mM NaCl, pH 7.5; ex 492/em 515 nm
Protocol: LUVs that contain DOPC or DOPC plus 0.1% Lipid II were prepared for a carboxyfluorescein (CF) leakage assay. The lipids were dried by a nitrogen stream and followed under vacuum for 2 h. After that, the lipids were hydrated by adding 25 mm Tris-HCl, 150 mm NaCl, and pH 7.5 containing 50 mm CF. The suspensions were frozen and thawed 10 times, followed by extrusion through 200nm membrane filters (Whatman Nuclepore, Track-Etch Membranes) 10 times. The excess dye was removed by loading vesicles on a spin column (Sephadex G50) for 2 min at 500 × g. Subsequently, the vesicles were diluted to 5 μm, and the brevibacillins-induced release of CF from the vesicles was monitored by measuring the increase in fluorescence intensity. The maximum fluorescence was reached by adding 10 μl of 20% Triton X-100. A Cary Eclipse Fluorescence Spectrophotometer (Agilent, United States) was used to determine the changes of fluorescence signals, and the excitation wavelength and emission wavelength were adjusted to 492 nm and 515 nm, respectively.

HepG2 = details: Figure 1, ref Zhao et al., 2021; cited from earlier work
Text: (§1) A vast number of bacterial non-ribosomally produced peptides (NRPs) have shown strong antimicrobial activity against pathogenic bacteria ([Cochrane et al., 2014]; [Cociancich et al., 2015]; [Hamamoto et al., 2015]; [Ling et al., 2015]; [Süssmuth and Mainz, 2017]). Lipo-tridecapeptides, a class of NRPs, show strong antimicrobial activity against Gram-positive pathogens, including antibiotic-resistant Staphylococcus aureus and Enterococcus spp. ([Barsby et al., 2001], [2006]; [Yang et al., 2016]; [Wu et al., 2019]; [Zhao et al., 2021]). However, many of these lipo-tridecapeptides have shown high ... || Figure 1 Structures of brevibacillins. The red color indicates the more hydrophobic amino acid residues of brevibacillin V, brevibacillin and brevibacillin I relative to brevibacillin 2V. MIC, the minimum inhibitory concentration against Staphylococcus aureus (MRSA). HC50, the 50% human blood cell hemolysis concentration. CC50, the 50% cell (HepG2) toxicity concentration.

human red blood cells = details: 2021, cited from earlier work; for HC50, 50% human blood cell hemolysis concentration: Figure 1, ref Zhao et al.
Text: as §1

[5] = Circular dichroism assay, 7-Lipid II; type: binding; details: 10 mM boric acid-NaOH pH 7.5, 0.1% CHAPS, 20°C; for conformational change in presence of DOPC: antibiotic 50 μM, DOPC vesicles 100 μM; for conformational change in presence of 7-Lipid II: antibiotic and 7-Lipid II 50 μM
Protocol: Lipid II and 7-Lipid II (a heptaprenyl version of Lipid II) were synthesized and purified as described in a previous study ([Breukink et al., 2003]; Figures 2A,B). Purified Lipid II and 7-Lipid II were dissolved in CHCl3/MeOH (2:1) and stored at −20°C until use, and the concentration was determined after destruction to inorganic phosphate according to [Rouser et al. (1970)]. 7-Lipid II was only used in circular dichroism assays, while wild-type Lipid II was used in all of the other assays.
7-Lipid II and 1,2-dioleoyl-sn-glycero-3-phosphocholine (DOPC) were resuspended in 10 mm boric acid-NaOH pH 7.5 containing 0.1% CHAPS. The final concentration of antibiotics and 7-Lipid II was adjusted to 50 μm, while a 100 μm final concentration of DOPC vesicles was used. After added the samples to a quartz cuvette with a path length of 1 mm, the CD spectra were recorded with a Jasco-810 CD spectropolarimeter at 20°C. The ellipticity was recorded between 185 nm and 260 nm at a 0.2-nm step size with 1-s response time. The spectra were averaged over five recordings with a scanning speed of 50 nm/min.

[6] = Pyrene-labeled Lipid II fluorescence quenching assay; type: binding; details: 50 μM DOPC LUVs with 0.5 mol % pyrene-labeled Lipid II, 20°C, ex 350 nm
Protocol: The effects of antibiotics on pyrene-labeled Lipid II were measured using 50 μm DOPC-based large unilamellar vesicles (LUVs) containing 0.5 mol % pyrene-labeled Lipid II ([Breukink et al., 2003]). Briefly, the LUVs were added to a quartz cuvette and titrated with nisin, brevibacillin, or brevibacillin 2V with stirring at 20°C. The fluorescence spectra were recorded between 360 and 600 nm (λex350 nm) using a Cary Eclipse Fluorescence Spectrophotometer (Agilent, United States).

| Substance | rank order of membrane disruption capacity [1] | rank order of calculated hydrophobicity [2] | MIC [3] [µg/mL] | MIC (molar) [3] [µM] | membrane disruption (CF leakage), LUVs lacking Lipid II [4] | CC50, 50% cell (HepG2) toxicity concentration (HepG2) [µg/mL] | cytotoxicity relative to the other brevibacillins (HepG2) | hemolytic activity (human red blood cells; 128 mg/L, ref Zhao et al.) | HC50, 50% human blood cell hemolysis concentration (human red blood cells) [mg/L] | conformational change in presence of DOPC [5] | conformational change in presence of 7-Lipid II [5] | excimer fluorescence (about 490 nm) [6] | pyrene monomer fluorescence [6] | speed of membrane permeabilization [1] |
| --- | --- | --- | --- | --- | --- | --- | --- | --- | --- | --- | --- | --- | --- | --- |
| Brevibacillin 2V | brevibacillin I > brevibacillin > brevibacillin V > brevibacillin 2V | brevibacillin I > brevibacillin > brevibacillin V > brevibacillin 2V | 2 | 1.3 | still caused rapid disruption of membrane | 45.49 ± 0.24 | much lower cytotoxicity than the other brevibacillins | no hemolytic activity | > 128 | no change was apparent | significant conformational change | no excimer fluorescence could be detected | decreased the monomer fluorescence | – |
| Brevibacillin | brevibacillin I > brevibacillin > brevibacillin V > brevibacillin 2V | brevibacillin I > brevibacillin > brevibacillin V > brevibacillin 2V | 2 | 1.3 | still caused rapid disruption of membrane | 5.21 ± 0.01 | – | – | 25.1 ± 0.1 | no change was apparent | significant conformational change | no excimer fluorescence could be detected | decreased the monomer fluorescence | appeared to act faster than brevibacillin 2V and the well-known pore-forming antibiotic nisin |
